Experimental findings from patent US20190093096A1, “COMOSAIN AND BROMELAINS AS IMMUNO-THERAPY IN THE TREATING AND/OR PREVENTING VARIOUS TYPES OF CANCER IN A MAMMAL” (priority 2017, published 2019) are described below.

Series [1] in a line: Blood analysis on rabbits fed high cholesterol diets. As to conditions: for decrease of plasma total cholesterol as compared to control group / decrease of plasma triglycerides as compared to control group: 1% cholesterol diet plus 0.15% flavonoid. It is filed as in vivo, New Zealand white rabbits. The method, then:
The rabbits were fed for 8 weeks with free access to specific high cholesterol diets and water. Body weight was recorded every 7 days and the records were analyzed. […] (Rutin, quercetin and kaempherol were purchased from Aldrich-Sigma Co. St. Louis, Mo. USA) (Vitexin was purchased from Indofine Co. Sumerville, N.J. USA)
(Step B) After 8 weeks of breeding, the rabbits were anesthetized with injection of ketamine 75 mg/kg in the femoral muscle and sacrificed. Blood samples were collected from the heart of each rabbit to determine the blood analysis consisting of; complete blood count (CBC), Chemistry-7 and 24, (including Liver and renal function tests), lipid profiles, (including Total cholesterol, HDL, LDL, VLDL and triglycerides), coagulation factors consisting of; Prothrombin time (PT), Partial thromboplastin time (PTT), and immuno-globulin-E (an anti-allergenic factor).
The blood samples collected from rabbits of the six dietary groups were allowed to stand for 2 hours, then centrifuged at 4000 rpm for 10 minutes. (Megafuge, Baxter-Heraeus instrument Co. N.J., USA) The supernatants were separated and stored in a deep freeze before analysis. The chemistry analysis was carried out by blood chemistry analyzer (Cobras-Integra-700, Roche Diagnostic Lab. Indiana, USA) to determine the changes in total cholesterol, HDL, LDL, triglycerides, liver function tests (such as SGOT, SGPT, G-GPT) and coagulation factors (PT, PTT) (Bayer-MLA-Electra-900 Automatic coagulation timer). The results were tested by using student t-test and Microsoft excel-7.0 program. The results are depicted in Table III. • 3.

The nature of series [2]: Analysis for fatty streak deposition in thoracic aorta. It is filed as in vivo, New Zealand white rabbits. Particulars: control group: thick layer; 1% cholesterol diet, 8 weeks.
A short description of series [3]: Fatty degeneration in the liver of the rabbits. Particulars: 1% cholesterol diet, 8 weeks. The series is classed as in vivo, New Zealand white rabbits. An excerpt:
According to the report of Fogt F. and Nanji A., (Toxicology and Applied Pharmacology; 136, pp 87-93, 1996) and Keegan A. et al., (Journal of Hepatology; 23, pp 591-600, 1995). Fatty degeneration of liver can be classified into four grades based upon the abnormal fat containing cells around the central vein of liver acinus, for example: grade 1 (0-25%), grade 2 (26-50%), grade 3 (51-75%), grade4 (76-100%). The effects of rutin, quercetin, kaempherol and vitexin on liver tissue on the rabbits from Example 4 Step B were examined.

Series [4] is described as follows: Toxicity of rutin, quercetin, kaempherol and vitexin in mice by oral administration. As to conditions: for adverse effects on hematopeutic, renal, hepatic systems / toxicity: oral, mouse, rutin 1500, quercetin 1250, kaempherol 1000, vitexin 500 mg/kg; for body weight during observation / pathological abnormality of internal organs, visually or microscopically / survival at day 180: single oral dose; for body weight during observation: 180 days of observation; for pathological abnormality of internal organs, visually or microscopically: sacrifice on day 181; for survival at day 180: rutin 1500, kaempherol 1000, vitexin 500 mg/kg.

The test system of a further series is breast cancer cell line. Put plainly: Growth inhibition of breast cancer cell line by Quercetin and Naringenin in vitro. It is filed as cell-based.
For another series, the system named is lung cancer cells. Kind of series: Inhibition of tumor cell growth of lung cancer by pepsin and trypsin in vitro. The series is classed as cell-based. As to conditions: 72 hours at 37 C, 10% CO2, Coulter counter. An excerpt:
The graph represents the two experiments with Pepsin and Trypsin.

Regarding `O=c1c(O)c(-c2ccc(O)cc2)oc2cc(O)cc(O)c12` [Kaempherol, 3,5,7,4′ tetra-hydroxy-flavone], the “liver function and WBC” value in series [1] (rabbit, in vivo) was “not affected”. For the same molecule, in series [1] (rabbits, 8 weeks), the “decrease of plasma total cholesterol as compared to control group” value (“decrease of plasma total cholesterol” for short) stood at 30%; the “decrease of plasma triglycerides as compared to control group” value (“decrease of plasma triglycerides” for short) is listed as 22%; the “reducing plasma total cholesterol and triglycerides, compared with Simvastatin” value is reported as “more effective”. Also, the “macrophage lipid cell complex in the aorta walls (microscopic pictures)” value (“macrophage lipid cell complex” for short) in series [2] is recorded as “no or a very thin layer of macrophage lipid cell complex”. In addition, the “microscopic features of the liver (fat containing cells)” value (from here on “microscopic features of the liver”) in series [3] is reported as “almost all of the liver cells are normal without containing fat particles”. Besides, in series [4], the “adverse effects on hematopeutic, renal, hepatic systems” value (“adverse effects on hematopeutic, renal” below) is “no adverse effects”; the toxicity result is given as “no toxicity”; the “body weight during observation” value is “no body weight loss”; the “pathological abnormality of internal organs, visually or microscopically” value (from here on “pathological abnormality”) is “did not develop any pathological abnormality”. Further, the “survival at day 180” value in series [4] is “All mice were alive”.

For the molecule `O=C1C[C@@H](c2ccc(O)cc2)Oc2cc(O)cc(O)c21` [Naringenin], the “growth of breast cancer cell line” value in the series on breast cancer cell line is “Growth inhibition”.

Turning to `O=c1c(O)c(-c2ccc(O)c(O)c2)oc2cc(O)cc(O)c12` [Quercetin, 3,5,7,3′,4′ penta-hydroxy flavone], the “growth of breast cancer cell line” value in the series on breast cancer cell line was “Growth inhibition”. Further, the “liver function and WBC” value in series [1] (rabbit, in vivo) was “not affected”. Besides, in series [1] (rabbits, 8 weeks), the “decrease of plasma total cholesterol” value is 33%; the “decrease of plasma triglycerides” value is listed as 47%; the “reducing plasma total cholesterol and triglycerides, compared with Simvastatin” value is given as “more effective”. The “macrophage lipid cell complex” value in series [2] is “no or a very thin layer of macrophage lipid cell complex”. Besides, the “microscopic features of the liver” value in series [3] is “almost all of the liver cells are normal without containing fat particles”. In series [4], the “adverse effects on hematopeutic, renal” value is given as “no adverse effects”; the “body weight during observation” value is on record as “no body weight loss”; the “pathological abnormality” value is “did not develop any pathological abnormality”; the “survival at day 180” value is on record as “All mice were alive”.

`C[C@@H]1O[C@@H](OC[C@H]2O[C@@H](Oc3c(-c4ccc(O)c(O)c4)oc4cc(O)cc(O)c4c3=O)[C@H](O)[C@@H](O)[C@@H]2O)[C@H](O)[C@H](O)[C@H]1O` [Rutin, Quercetin-3-rutinoside]: in series [1] (rabbits, 8 weeks), the “decrease of plasma total cholesterol” value is listed as 32% and the “decrease of plasma triglycerides” value was determined as 45%. The “liver function and WBC” value in series [1] (rabbits, 8 weeks, unlike the Simvastatin group) is “not affected”. Moreover, in series [4], the “adverse effects on hematopeutic, renal” value was “no adverse effects”; the toxicity result is recorded as “no toxicity”; the “body weight during observation” value is “no body weight loss”; the “pathological abnormality” value is on record as “did not develop any pathological abnormality”. Besides, the “survival at day 180” value in series [4] is reported as “All mice were alive”.

For the molecule `O=c1cc(-c2ccc(O)cc2)oc2c(C3O[C@H](CO)[C@@H](O)[C@H](O)[C@H]3O)c(O)cc(O)c12` (stereo partly drawn) [Vitexin, 8-D-glucosyl-4′,5,7 trihydroxy-flavone], in series [1] (rabbit, in vivo), the “liver function and WBC” value is given as “not affected”. Also, in series [1] (rabbits, 8 weeks), the “decrease of plasma total cholesterol” value was found to be 30%; the “decrease of plasma triglycerides” value turned out to be 17%; the “reducing plasma total cholesterol and triglycerides, compared with Simvastatin” value was “more effective”. Also, the “macrophage lipid cell complex” value in series [2] is listed as “no or a very thin layer of macrophage lipid cell complex”. Also, the “microscopic features of the liver” value in series [3] is given as “almost all of the liver cells are normal without containing fat particles”. In series [4], the “adverse effects on hematopeutic, renal” value was “no adverse effects”; the toxicity result is “no toxicity”; the “body weight during observation” value was “no body weight loss”; the “pathological abnormality” value is “did not develop any pathological abnormality”. Also, the “survival at day 180” value in series [4] is “All mice were alive”.

With “pepsin: proteinase purchased from Sigma-Aldrich”, the “tumor cell growth of lung cancer” value with lung cancer cells is given as “Inhibition of tumor cell growth”.

B1: trypsin: proteinase purchased from Sigma-Aldrich (protein, UniProt P00760 24-246, looked up)
Serine protease 1: IVGGYTCGANTVPYQVSLNSGYHFCGGSLINSQWVVSAAHCYKSGIQVRLGEDNINVVEGNEQFISASKSIVHPSYNSNTLNNDIMLIKLKSAASLNSRVASISLPTSCASAGTQCLISGWGNTKSSGTSYPDVLKCLKAPILSDSSCKSAYPGQITSNMFCAGYLEGGKDSCQGDSGGPVVCSGKLQGIVSWGSGCAQKNKPGVYTKVCNYVSWIKQTIASN
As for B1, the “tumor cell growth of lung cancer” value with lung cancer cells is reported as “Inhibition of tumor cell growth”.
